Laboratory results: US5889013A, “Pyrimidine acyclonucleoside derivatives” (priority 1994, dated 1999)
Like-named read-outs stand apart in the source and are kept apart here.

Experiments:
HIV-1 (HTLV-IIIB strain) = assay: Inhibitory activity for HIV-induced cytopathogenicity (MT-4 cells, MTT method); format: cell-based; conditions: read-out: 50% inhibitory concentration of HIV infection
Description: (§1) In RPMI 1640 culture medium supplemented with 10% heat-inactivated fetal bovine serum, 2 mM of L-glutamine, 100 U/mL of penicillin G and 100 μg/mL of streptomycin, MT-4 cells (HTLV-1 transformed T4-cell line) at a concentration of 1×10^4 /well in a flat-bottom, microtiter plate were infected with 500 TCID50 of HIV-1 (HTLV-IIIB strain). Immediately after virus infection, sample serially diluted with culture medium from stock solution prepared in dimethyl sulfoxide was added to each well in quadriplicate. After 6 days incubation at 37° C., the viability of mock and HIV-infected cells was determined by the 3-(4,5-dimethylthiazol-2-yl)-2,5-diphenyltetrazolium bromide (MTT) method. And also, the cytotoxicity of sample to MT-4 cells not infected with HIV was assessed in parallel with its antiviral activity under the same way as above.

[1] = Cytotoxicity to MT-4 cells not infected with HIV (MTT method); format: cell-based; conditions: human
Description: as §1

[2] = tested on: human immunodeficiency virus (HIV); conditions: cited from earlier work; for side effects: patients, clinical use
[3] = Human immunodeficiency virus 1, IIIB, MT4, 144 h
[4] = MT-4 cells not infected with HIV, 6 days, 37° C., MTT, read-out: 50% cytotoxic concentration to MT-4 cells

IC50 (HIV-1 (HTLV-IIIB strain); Human immunodeficiency virus 1, MT4, 144 h, MT-4 cells infected with 500 TCID50 HIV-1 (HTLV-IIIB strain), 6 days, 37° C., MTT) [µM] | Compound | IC50 (HIV-1 (HTLV-IIIB strain); [3]) [µM] | CC50 at 144 h [1, 4] [µM] | clinical and immunological status of patients ([2]; patients with AIDS and AIDS-related complex) | side effects [2] | CC50 at 144 h ([1]; mt-4 cells) [µM]
– | Cc1cn([C@H]2C[C@H](N=[N+]=[N-])[C@@H](CO)O2)c(=O)[nH]c1=O [AZT, 3'-Deoxy-3'-azidothymidine, reference compound] | 0.0046 | 22.7 | proven to improve the clinical and immunological status of patients with AIDS and AIDS-related complex | serious side effects such as anemia and leukopenia | –
– | CCCCn1c([Se]c2cc(C)cc(C)c2)c(C(C)C)c(=O)[nH]c1=O [Compound 83, 1-butyl-6-[(3,5-dimethylphenyl)selenenyl]-5-isopropyluracil] | 0.002 | 28.2 | – | – | –
– | CC(C)c1c([Se]c2ccccc2)n(CCCc2ccccc2)c(=O)[nH]c1=O [Compound 84, 5-isopropyl-1-(3-phenylpropyl)-6-(phenylselenenyl)uracil] | 0.008 | 28 | – | – | –
– | Cc1cc(C)cc([Se]c2c(C(C)C)c(=O)[nH]c(=O)n2CCCc2ccccc2)c1 [Compound 86, 6-[(3,5-dimethylphenyl)selenenyl]-5-isopropyl-1-(3-phenylpropyl)-uracil] | 0.0006 | 26.9 | – | – | –
0.6 | Nc1ccn([C@H]2CC[C@@H](CO)O2)c(=O)n1 [DDC, 2',3'-dideoxycytidine, reference compound] | – | – | – | side effects such as peripheral neuropathy and pancreatitis | 17.6
– | O=c1[nH]cnc2c1ncn2[C@H]1CC[C@@H](CO)O1 [DDI, 2',3'-dideoxyinosine] | – | – | – | side effects such as peripheral neuropathy and pancreatitis | –
